Experimental data as given in patent US20090099167A1, “Organic compounds” (Novartis Institutes for Biomedical Research, priority 2004, published 2009).

Tests used:
Cdk1/cycB = Cdk1/cycB (UniProt P06493); test: Cdk1/cycB kinase assay, histone H1 substrate; format: biochemical, starfish; conditions: Table 5; read-out: CDK1/B, IC50 class
Method in brief: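 Active Cdk1/cycB was purified from starfish oocytes arrested in M phase with 1-methyladenine, using p9CKShs-sepharose. Reactions ran 20 min at ambient temperature and were stopped with EDTA. Phosphorylated product was captured on Immobilon P membranes, washed in H3PO4 and EtOH, and counted by scintillation.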

HER-1 = HER-1 (Homo sapiens, UniProt P00533); test: HER-1 kinase inhibition; format: biochemical; conditions: Table 5; read-out: HER-1, IC50 class
Chain of HER-1 (P00533 25-1210, species assumed): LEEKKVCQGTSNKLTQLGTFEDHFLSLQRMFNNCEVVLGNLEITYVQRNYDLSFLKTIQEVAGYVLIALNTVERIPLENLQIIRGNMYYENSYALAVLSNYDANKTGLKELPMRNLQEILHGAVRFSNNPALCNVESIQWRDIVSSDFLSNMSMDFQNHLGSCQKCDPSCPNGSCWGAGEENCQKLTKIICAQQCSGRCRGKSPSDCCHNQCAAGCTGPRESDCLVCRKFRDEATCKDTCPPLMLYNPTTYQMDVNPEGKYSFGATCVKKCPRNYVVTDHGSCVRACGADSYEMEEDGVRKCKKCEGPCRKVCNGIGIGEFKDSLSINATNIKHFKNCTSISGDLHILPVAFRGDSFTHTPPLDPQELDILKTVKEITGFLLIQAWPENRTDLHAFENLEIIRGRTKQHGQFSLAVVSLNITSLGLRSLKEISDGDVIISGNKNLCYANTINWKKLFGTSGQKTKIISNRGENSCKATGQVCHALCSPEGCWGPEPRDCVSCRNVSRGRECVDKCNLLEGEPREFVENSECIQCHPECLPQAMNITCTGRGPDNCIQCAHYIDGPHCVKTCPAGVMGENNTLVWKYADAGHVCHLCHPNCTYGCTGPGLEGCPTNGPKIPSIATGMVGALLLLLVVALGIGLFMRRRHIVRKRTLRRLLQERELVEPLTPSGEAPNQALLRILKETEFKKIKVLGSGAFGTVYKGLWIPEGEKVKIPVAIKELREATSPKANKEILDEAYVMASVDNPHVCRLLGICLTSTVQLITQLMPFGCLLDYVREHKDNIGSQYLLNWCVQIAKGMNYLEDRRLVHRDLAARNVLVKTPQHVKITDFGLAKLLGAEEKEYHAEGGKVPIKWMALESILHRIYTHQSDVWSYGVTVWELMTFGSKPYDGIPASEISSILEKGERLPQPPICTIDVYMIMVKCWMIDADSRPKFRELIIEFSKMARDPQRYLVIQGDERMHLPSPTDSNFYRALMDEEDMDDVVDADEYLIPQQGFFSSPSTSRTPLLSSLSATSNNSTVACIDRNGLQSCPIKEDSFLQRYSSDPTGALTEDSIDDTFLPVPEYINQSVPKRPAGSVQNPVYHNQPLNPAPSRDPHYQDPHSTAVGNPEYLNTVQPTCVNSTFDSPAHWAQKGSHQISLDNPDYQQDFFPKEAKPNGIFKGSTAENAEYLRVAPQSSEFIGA

Tek = target: T1, Tek (Homo sapiens, UniProt Q02763); test: Tek kinase inhibition, GST-fused kinase domain; format: biochemical; conditions: Table 5; read-out: Tek, IC50 class
T1 construct: N-terminally GST-fused (pAcG1, Pharmingen) KDR, Flt-1, Flk-1, Tek and PDGFR-β kinase domains are obtained from ProQinase, Freiburg, Germany; host or cells: Sf9 or High Five (baculovirus)
T1 sequence (Q02763 824-1096 limits assumed, species assumed): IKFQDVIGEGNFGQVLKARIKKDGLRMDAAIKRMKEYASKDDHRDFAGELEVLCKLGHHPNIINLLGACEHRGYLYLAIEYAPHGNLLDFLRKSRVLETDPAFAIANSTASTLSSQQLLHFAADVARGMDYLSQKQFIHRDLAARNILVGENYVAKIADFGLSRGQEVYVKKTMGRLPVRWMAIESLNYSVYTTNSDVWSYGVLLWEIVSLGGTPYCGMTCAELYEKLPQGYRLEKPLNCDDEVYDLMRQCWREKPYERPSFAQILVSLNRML
From the text: The inhibition of IGF-1R and Ins-R can be determined as follows: The baculovirus donor vector pfbgx3IGFIRcd is used to generate a recombinant baculovirus that expresses the amino acid region 950-1337 of the mature peptide cytoplasmic domain of the human IGF-IR. To generate the cDNA fragment encoding the amino acid region 919-1343 of the intra-cytoplasmic kinase domain of the human insulin receptor, pC5hInsR is used. The fragments of the human IGF-IR and Ins-R are cloned, expressed and small-scale purified as a factor Xa-cleavable glutathione-S-transferase (GST)-fusion protein using the Bac-to-Bac™ system (GIBCO BRL) of recombinant baculovirus generation. Virus containing media is collected from the transfected cell culture and used for infection to increase its titer. Virus containing media obtained after two rounds of infection is used for large-scale protein expression. Cell extracts are prepared and loaded onto a glutathione-Sepharose (Pharmacia) column. After washing, the GST-tagged proteins are then eluted with a glutathione-containing buffer. Purified protein is stored at −70° C. in elution buffer. Tyrosine protein kinase assays with purified GST-IGF-1R and GST-ins-R are carried in a final volume of 30 μl containing 20 mM Tris-HCl, pH 7.6, 10 mM MgCl2, 0.01 mM Na3VO4, 1% DMSO, 1 mM DTT, 3 μg/ml poly(Glu,Tyr) 4:1 and 10 μM ATP (γ-[^33P]-ATP 0.1 μCi). The assay is performed in 96-well plates at ambient temperature for 20 min and terminated by addition of 25 μl 0.05 M EDTA pH 7.0. An aliquot of 40 μl is spotted with a multichannel dispenser on Whatman P81 membranes mounted in a Millipore Microtiter filter manifold connected to a low vacuum source. After elimination of liquid, the membrane is transferred to a sequence of 4 washing baths containing 0.5% H3PO4 and one with EtOH (shaking incubation for 10 min each), dried, mounted onto a Hewlett Packard TopCount manifold added 10 μl Microscint® and counted. Compounds of formula (I) show up to 90% inhibition of Ins-R at 10,000 nM, preferably between 60-90% inhibition. The inhibition of Tek can be determined as follows: The procedure of the expression, purification and assay these kinases has been described. Fabbro et al., Pharmacol. Ther. 82(2-3) 293-301 (1999). In brief, the glutathione S-transferase (GST) gene from the pAcG1 vector (Pharmingen) is excised with EcoRV and EcoRI and inserted into the cloning site of the Fast-Bac baculoviral vector (GIBCO) creating a 5530 bp vector with N-terminal cloning sites derived from the pAcG1 fusion vector (FBG0). The C-terminal cloning site may be any cloning site (from the Fast-Bac vector) downstream of the N-terminal cloning site used. N-terminally GST-fused (pAcG1, Pharmingen) KDR, Flt-1, Flk-1, Tek and PDGFR-β kinase domains are obtained from ProQinase, Freiburg, Germany. Tek is recloned into the FBG1 vector by EcoRI excision and ligation into EcoRI digested FBG1 (FBG1-Tek). The coding sequences for the whole cytoplasmic domain of c-Kit (aa 544-976) and c-Fms (aa 538-972) are amplified by PCR from human uterus and from human bone marrow cDNA libraries (Clontech), respectively. The amplified DNA fragments are fused to GST by cloning them into FBG1 as BamHI-EcoRI insertions, to yield FBG1-c-Kit and FBG1-c-Fms. Tek is recloned into the FBG0 transfer vector by EcoRI excision and ligation into EcoRI digested FBG0 (FBG-Tie2/Tek). FGFR-1 and c-met kinase domains are obtained by PCR from human A431 cells. N-terminal primers contain an overhanging EcoRI site, while C-terminal primers contain a XhoI site to aid cloning into the transfer vectors. After digestion of both the PCR fragments and FBG0 the cleavage products are gel-purified and ligated together to form the kinase constructs (FBG-Met, FBG-FGFR-1).
Viruses for each of the kinases are made according to the protocol supplied by GIBCO. […]

| IC50 (Cdk1/cycB) [µM] | IC50 (HER-1) [µM] | IC50 (Tek) [µM] | SMILES |
| --- | --- | --- | --- |
| > 10 | > 10 | > 10 | COc1ccc(-c2cnn3c(N)c(-c4cccc(Cl)c4)c(C)nc23)cc1OC [Example 93, 6-(3-Chloro-phenyl)-3-(3,4-dimethoxy-phenyl)-5-methyl-pyrazolo[1,5-a]pyrimidin-7-ylamine] |
| > 10 | > 10 | 1 to 10 | Cc1nc2c(-c3cccc(N4CCN(C)CC4)c3)cnn2c(N)c1-c1ccc(F)c(F)c1 [Example 98, 6-(3,4-Difluoro-phenyl)-5-methyl-3-[3-(4-methyl-piperazin-1-yl)-phenyl]-pyrazolo[1,5-a]pyrimidin-7-ylamine] |
| > 10 | > 10 | > 10 | Cc1nc2c(-c3cccc(N4CCN(CCO)CC4)c3)cnn2c(N)c1-c1ccc(F)c(F)c1 [Example 101, 2-(4-{3-[7-Amino-6-(3,4-difluoro-phenyl)-5-methyl-pyrazolo[1,5-a]pyrimidin-3-yl]-phenyl}-piperazin-1-yl)-ethanol] |

More lines, now with the values behind:

| SMILES | IC50 (Cdk1/cycB) [µM] | IC50 (HER-1) [µM] | IC50 (Tek) [µM] |
| --- | --- | --- | --- |
| Cc1nc2c(-c3cccc(N4CCN(C)CC4)c3)cnn2c(N)c1-c1cccc(Br)c1 [Example 84, 6-(3-Bromo-phenyl)-5-methyl-3-[3-(4-methyl-piperazin-1-yl)-phenyl]-pyrazolo[1,5-a]pyrimidin-7-ylamine] | > 10 | > 10 | > 10 |
| CN1CCN(c2cccc(-c3cnn4c(N)c(Cc5ccccc5)cnc34)c2)CC1 [Example 91, 6-Benzyl-3-[3-(4-methyl-piperazin-1-yl)-phenyl]-pyrazolo[1,5-a]pyrimidin-7-ylamine] | > 10 | > 10 | > 10 |
